{"source": "patent US4223036A", "about": "“1-(1,3-Dioxolan-2-ylmethyl)-1H-1,2,4-triazoles” (Janssen Pharmaceutica N.V., priority 1979, dated 1980)", "tested_on": "Candida albicans", "experiment": "Activity against crop candidosis in turkeys (dose whereby crops of 50% of animals were completely negative)", "assay_type": "in vivo", "conditions": "medicated feed for 13 consecutive days", "method": "Experiment B: Activity of Compounds (I) Against Crop Candidosis in Turkeys\nTurkeys of 14 days old were infected in the crop with 4.10^6 Candida albicans cells, grown on Sabouraud broth for 48 hours at 37° C. and diluted with saline. The volume of the inoculum was 1 ml. The drug under investigation were premixed in 500 mg of lacton and thereafter admixed in 1000 g of meal without any additives. The concentration of the drug under investigation in the meal was expressed in mg/kg.\nThe animals were given the medicated feed for 13 consecutive days starting on the day of infection. At the end of the experiment all animals were sacrificed. At autopsy the crops were removed, emptied and grinded in an ultra-turrax mixer in 15 ml of sterile saline. Colony counting was done on Sabouraud agar and the results given in the Tables I, II and III represent the ED50, i.e., the dose of the drug whereby the crops of 50% of the animals were completely negative for Candida albicans.", "note": "Structures can show the parent of a compound that is named as a salt.", "data": [{"smiles": "O=C(Oc1ccccc1)N1CCN(c2ccc(OC[C@H]3CO[C@](Cn4cncn4)(c4ccc(Cl)cc4Cl)O3)cc2)CC1", "note": "(relative stereo) [COOC6 H5, cis-phenyl 4-{4-[2-(2,4-dichlorophenyl)-2-(1H-1,2,4-triazol-1-ylmethyl)-1,3-dioxolan-4-ylmethoxy]phenyl}-1-piperazinecarboxylate]", "values": [{"measurement": "ED50 (crop candidosis in turkeys)", "setting": "Table II", "value": "16 mg/kg of feed"}]}, {"smiles": "O=C(Nc1ccc(OC[C@H]2CO[C@](Cn3ccnc3)(c3ccc(Cl)cc3Cl)O2)cc1)c1ccc(Cl)cc1", "note": "(relative stereo)", "values": [{"measurement": "ED50 (crop candidosis in turkeys)", "setting": "Table I", "value": "31 mg/kg of feed"}]}, {"smiles": "O=S(=O)(Cc1ccccc1)N1CCN(c2ccc(OC[C@H]3CO[C@](Cn4cncn4)(c4ccc(Cl)cc4Cl)O3)cc2)CC1", "note": "(relative stereo) [SO2CH2C6H5, cis-1-{4-[2-(2,4-dichlorophenyl)-2-(1H-1,2,4-triazol-1-ylmethyl)-1,3-dioxolan-4-ylmethoxy]phenyl}-4-(phenylmethylsulfonyl)piperazine monohydrate]", "values": [{"measurement": "ED50 (crop candidosis in turkeys)", "setting": "Table II", "value": "16 mg/kg of feed"}]}, {"smiles": "CCCCN1CCN(c2ccc(OC[C@H]3CO[C@](Cn4cncn4)(c4ccc(Cl)cc4Cl)O3)cc2)CC1", "note": "(relative stereo) [(CH2)3CH3]", "values": [{"measurement": "ED50 (crop candidosis in turkeys)", "setting": "Table II", "value": "16 mg/kg of feed"}]}, {"smiles": "CCCC(=O)N1CCN(c2ccc(OC[C@H]3CO[C@](Cn4cncn4)(c4ccc(Cl)cc4Cl)O3)cc2)CC1", "note": "(relative stereo) [CO(CH2)2CH3, cis-1-{4-[2-(2,4-dichlorophenyl)-2-(1H-1,2,4-triazol-1-ylmethyl)-1,3-dioxolan-4-ylmethoxy]phenyl}-4-(1-oxobutyl)piperazine dihydrochloride]", "values": [{"measurement": "ED50 (crop candidosis in turkeys)", "setting": "Table II", "value": "16 mg/kg of feed"}]}, {"smiles": "COc1ccc(C2(Cn3ccnc3)OCC(COc3ccc(N4CCN(C(C)=O)CC4)cc3)O2)cc1", "note": "(stereo not shown) [1-acetyl-4-{4-[2-(1H-imidazol-1-ylmethyl)-2-(4-methoxyphenyl)-1,3-dioxolan-4-ylmethoxy]phenyl}piperazine]", "values": [{"measurement": "ED50 (crop candidosis in turkeys)", "setting": "Table III", "value": "31 mg/kg of feed"}]}, {"smiles": "CCCN1CCN(c2ccc(OC[C@H]3CO[C@](Cn4cncn4)(c4ccc(Cl)cc4Cl)O3)cc2)CC1", "note": "(relative stereo) [(CH2)2CH3]", "values": [{"measurement": "ED50 (crop candidosis in turkeys)", "setting": "Table II", "value": "16 mg/kg of feed"}]}, {"smiles": "CCC(=O)N1CCN(c2ccc(OC[C@H]3CO[C@](Cn4cncn4)(c4ccc(Cl)cc4Cl)O3)cc2)CC1", "note": "(relative stereo) [COC2 H5, cis-1{4-[2-(2,4-dichlorophenyl)-2-(1H-1,2,4-triazol-1-ylmethyl)-1,3-dioxolan-4-ylmethoxy]phenyl}-4-(1-oxopropyl)piperazine dihydrochloride]", "values": [{"measurement": "ED50 (crop candidosis in turkeys)", "setting": "Table II", "value": "8 mg/kg of feed"}]}, {"smiles": "CCOC(=O)N1CCN(c2ccc(OC[C@H]3CO[C@](Cn4cncn4)(c4ccc(Cl)cc4Cl)O3)cc2)CC1", "note": "(relative stereo) [COOC2 H5, cis-ethyl 4-{4-[2-(2,4-dichlorophenyl)-2-(1H-1,2,4-triazol-1-ylmethyl)-1,3-dioxolan-4-ylmethoxy]phenyl}1-piperazinecarboxylate dihydrochloride]", "values": [{"measurement": "ED50 (crop candidosis in turkeys)", "setting": "Table II", "value": "8 mg/kg of feed"}]}, {"smiles": "CCCCN1CCN(c2ccc(OC[C@H]3CO[C@](Cn4ccnc4)(c4ccc(Cl)cc4Cl)O3)cc2)CC1", "note": "(relative stereo)", "values": [{"measurement": "ED50 (crop candidosis in turkeys)", "setting": "Table I", "value": "31 mg/kg of feed"}]}, {"smiles": "O=S(=O)(Cc1ccccc1)N1CCN(c2ccc(OC[C@H]3CO[C@](Cn4ccnc4)(c4ccc(Cl)cc4Cl)O3)cc2)CC1", "note": "(relative stereo)", "values": [{"measurement": "ED50 (crop candidosis in turkeys)", "setting": "Table I", "value": "16 mg/kg of feed"}]}, {"smiles": "COC(=O)N1CCN(c2ccc(OC[C@H]3CO[C@](Cn4cncn4)(c4ccc(Cl)cc4Cl)O3)cc2)CC1", "note": "(relative stereo) [COOCH 3, cis-methyl 4-{4-[2-(2,4-dichlorophenyl)-2-(1H-1,2,4-triazol-1-ylmethyl)-1,3-dioxolan-4-ylmethoxy]phenyl}-1-piperazinecarboxylate]", "values": [{"measurement": "ED50 (crop candidosis in turkeys)", "setting": "Table II", "value": "8 mg/kg of feed"}]}, {"smiles": "CC(C)CN1CCN(c2ccc(OC[C@H]3CO[C@](Cn4ccnc4)(c4ccc(Cl)cc4Cl)O3)cc2)CC1", "note": "(relative stereo)", "values": [{"measurement": "ED50 (crop candidosis in turkeys)", "setting": "Table I", "value": "16 mg/kg of feed"}]}]}
